Marks after values point to notes of the source that are not given here.
Tested on: grazed pasture
Experiment: Field trial on grazed pasture: pasture shoot dry matter from two cuts after treatment application
Type: in vivo
Design: Mean Difference vs C (control) / Mean Difference vs UG-20 / Mean Difference vs UG-20 + GA-10 / Mean Difference vs UG-20 + GA-30 / Mean Difference vs UG-20 + GA-60 / Mean Difference vs UL-20 / Mean Difference vs UL-20 + GA-20 / Mean Difference (Control minus treatment): unit not given here
Procedure: The trial was carried out with a total of eight treatments. The eight treatment groups were • 1. Control—negative control (no nitrogen or gibberellic acid), • 2. GA-20—gibberellic acid positive control (gibberellic acid applied at 20 g/ha), • 3. UG-20—granular urea positive control (granular urea applied at a rate of 20 kg N/ha, • 4. UG-20+GA-10—10 g/ha gibberellic acid-coated urea granules (granular urea-20 coated with gibberellic acid to apply gibberellic acid at a rate of 10 g/ha), • 5. UG-20+GA-30—30 g/ha gibberellic acid-coated urea granules (granular urea-20 coated with gibberellic acid to apply gibberellic acid at a rate of 30 g/ha), and • 6. UG-20+GA-60—60 g/ha gibberellic acid-coated urea granules (granular urea-20 coated with gibberellic acid to apply gibberellic acid at a rate of 60 g/ha). • 7. UL-20—liquid urea positive control (liquid urea applied at a rate of 20 kg N/ha [with total liquid volume of 200 L/ha]), and 8. UL-20+GA-20—liquid urea and gibberellic acid positive control (liquid urea applied at a rate of 20 kg N/ha with gibberellic acid applied at a rate of 20 g/ha).
The trial was performed with four repetitions per treatment group on a plot with an area of 2 m^2×2 m^2 at locations in Whangarei, Matamata, Lincoln, Ashburton, and Southland.
The treatments were applied on grazed pasture. All experimental sites were fenced off four months prior to treatment application to avoid nitrogen inputs from grazing animals and fertiliser application. At each site, four blocks separated by a 1 m buffer were established. Each block contained eight small plots (each plot of 2m^2×2m^2) separated by a 1 m buffer zone to give a total of 32 plots.
The above eight treatments were applied in mid August 2011. Before treatments application, four composite soil samples (0-10 cm soil depth), were collected for key soil properties (i.e. soil pH, organic C &N, Olsen P, K, Ca, Mg, CEC, base saturation and MAF quick test). Each composite soil sample composed of 10 randomly collected soil samples from each block. Pastures from each plot were cut at 4 to 5 cm height using a lawn mower at appropriate times (preferably after every 21 days) to simulate rotational grazing practices. Bulk fresh pasture weight for each plot was recorded. Before mowing pastures from each plot, four small randomly picked pasture samples from each plot were cut using a pair of scissors. Fresh pastures were transferred to sealable plastic bags and were kept in a chilly bin. Fresh pastures from each plastic bag were then be transferred to a pre-weighed paper bag, weighed (at least 2 decimal balance), and dried at 60 to 70° C. for one week. After one week of drying, dry pasture weight was recorded to determine pasture moisture content.
In the case of liquid treatments, these were all applied at a rate of 200 L/ha.
The effectiveness of the treatments was measured by comparing the pasture shoot dry matter from two cuts after treatment application. The first cut was made on 26 Sep. 2011 and the second cut made on 12 Oct. 2011.
The pairwise comparisons were calculated using Fisher's least significant difference (LSD) with P=0.05.

SMILES: C=C1C[C@]23C[C@@]1(O)CC[C@H]2[C@@]12C=C[C@H](O)[C@@](C)(C(=O)O1)[C@H]2[C@@H]3C(=O)O [GA-20 only, gibberellic acid]
- Cumulative mean pasture dry matter (mean for the five treatment areas (Whangarei, Matamata, Lincoln, Ashburton, Southland), two cuts after treatment): 3038.7
- Mean Difference (Control minus treatment) (pairwise comparison of Table 1 means, Fisher's LSD P=0.05, Control is first treatment, labelled treatment is subtracted): −757.857*
- Mean Difference vs C (control) (pairwise comparison, Fisher's LSD P=0.05, treatment minus C): 757.857*
- Mean Difference vs UG-20 (pairwise comparison, Fisher's LSD P=0.05, treatment minus UG-20): 56.321
- Mean Difference vs UG-20 + GA-10 (pairwise comparison, Fisher's LSD P=0.05, treatment minus UG-20 + GA-10): −91.281
- Mean Difference vs UG-20 + GA-30 (pairwise comparison, Fisher's LSD P=0.05, treatment minus UG-20 + GA-30): −427.001*
- Mean Difference vs UG-20 + GA-60 (pairwise comparison, Fisher's LSD P=0.05, treatment minus UG-20 + GA-60): −381.674*
- Mean Difference vs UL-20 (pairwise comparison, Fisher's LSD P=0.05, treatment minus UL-20): −141.578
- Mean Difference vs UL-20 + GA-20 (pairwise comparison, Fisher's LSD P=0.05, treatment minus UL-20 + GA-20): −423.846*
